Assay: Human HepG2 cell viability assay in 384 well format
Assay type: toxicity, cell-based
Set-up: dose 125 nL, time 70.5 hour; cytotoxicity at 70.5 h: concentration not given beside the values
Conditions: HepG2 cells, read-out: Inhibition

Row | SMILES | cytotoxicity at 70.5 h [%]
1 | CCC1(C(=O)O)CCCN(C(=O)c2ccc(O)c(Cl)c2)C1 (stereo not given) | -4.39
2 | C[C@@H]1CN(CC(=O)NCc2ccccn2)C[C@]1(C)O | -1.62
3 | CC(C)c1nc(C(=O)N2C[C@H]3CC[C@@H]2CN(C2CCOCC2)C3)cs1 | -7.88
4 | CCCc1nc(N2CCCC3(CCNC3)C2)c2cnn(C)c2n1 (stereo not given) | -7.26
5 | CN1[C@@H](c2ccccc2)[C@@H](C(=O)NCc2ccncc2)C[C@@]1(C)C(=O)O | -22.3
6 | O=C(N1CCCC1)N1CCC(c2nccn2Cc2cscn2)CC1 | -5.23
7 | COc1ccccc1CCN1CCCC(CN(C)Cc2cc(C)n[nH]2)C1 (stereo not given) | -8.68
8 | CCCn1cc(-c2cc(C(=O)N(C)C)c3ccc(C)cc3n2)cn1 | -9.76
9 | Cc1cc(CNC(=O)C2CCN(CC(N)=O)CC2)cc(C)n1 | -6.5
10 | Cc1cnn(-c2cncc(C(N)=O)c2)c1 | -5.78
11 | Cc1cccc(OCC2CCCN(C(=O)CCn3ccccc3=O)C2)c1 (stereo not given) | -11.2
12 | CC(Cn1cccn1)C(=O)N1CCC(NS(C)(=O)=O)CC1 (stereo not given) | -6.23
13 | Cc1cc(N[C@H](CO)COCc2ccccc2)n2nc(C)cc2n1 | -0.86
14 | Cc1ccc(OC2(C(=O)O)CCN(C/C=C/c3ccco3)CC2)c(C)n1 | -7.06
15 | CCC[C@@H]1CN(Cc2cc3c(cc2OC)OCCO3)C[C@H]1C(=O)O | -1.36
16 | CSCC(=O)N[C@H]1CN(CC2CCOCC2)C[C@@H]1c1ccccc1 | -4.95
17 | N#Cc1ccccc1CN1CCCC(c2nccn2CC2CCC2)C1 (stereo not given) | -11
18 | c1ccc(-c2ncc(CN3CCCCC3CCn3cccn3)cn2)nc1 (stereo not given) | -4.71
19 | CCc1cnc(N)nc1N[C@@H](C)c1ncccc1C | -12.4
20 | COCCN1CCCC2(CCN(Cc3noc(C4CCCC4)n3)C2)C1=O (stereo not given) | -4.8
21 | c1cn(Cc2ccc(N3CCCN(C4CCCC4)CC3)nc2)cn1 | 38.7
22 | COc1ccc(F)c(CN2CCCC3(CCN(C(=O)CSC)C3)C2)c1 (stereo not given) | 8.81
23 | Cc1cc(C(=O)N2CCCC(c3nccn3C)C2)cc(S(N)(=O)=O)c1C (stereo not given) | -5.68
24 | COc1cccc([C@@H]2CN(C3CCCC3)C[C@H]2C(=O)O)c1 | -2.63
25 | Cc1cnc(NC(C)Cc2cccnc2)nc1N(C)C (stereo not given) | 0.166
26 | Cc1cc(C(N)=O)c(N2C[C@@H](C)[C@@](C)(O)C2)nc1C | -7.31
27 | COc1ccc(CN2CC3(CCNCC3)CCC2=O)c(F)c1F | 15.3
28 | CC(C)(C)c1cc(CNC(=O)c2cc(COc3ccccc3)[nH]n2)[nH]n1 | 8.48

Row | SMILES | cytotoxicity at 70.5 h [%]
29 | Cc1nc(N)nc(C)c1CC(=O)N1CCC2(CC1)OCCCC2O (stereo not given) | -13.9
30 | CCC[C@@H]1CN(Cc2cnc(-c3cccs3)nc2)C[C@H]1C(=O)O | -0.697
31 | O=C(c1ccc(C2CCCN2)s1)N1CCC2(CCCO2)CC1 (stereo not given) | -6.68
32 | CCn1c(C2CCNCC2)nn(CCn2ccc(C)n2)c1=O | -21.2
33 | CCC(Nc1nc(C)nc2c1cnn2C)c1ncnn1CC (stereo not given) | -1.28
34 | CC(C)c1cc(C(=O)N2CCN(c3ccc(F)c(Cl)c3)CC2)n(C)n1 | -4.92
35 | COc1ccc(C2(C(=O)NCc3c(C)ncc4c3CCNC4)CC2)cc1 | -5.87
36 | O=C(O)C1(Cc2ccc(F)cc2F)CCCN(Cc2ccncc2)C1 (stereo not given) | -5.04
37 | Cc1nccn1CCN(C)c1nc(-c2ccc(Cl)cc2)nc2c1CNC2 | -3.99
38 | Cn1c(CN2CCOCC2)nnc1C1CCCN(C(=O)CCC2CC2)C1 (stereo not given) | -6.43
39 | CSc1nccc(N2CCC3(CCCN(CCc4ccccc4)C3)C2)n1 (stereo not given) | 6.79
40 | COCCn1cncc1-c1nc2c([nH]1)CC(C)(C)CNC2=O | -4.1
41 | CN1CCC(N2CCN(C(C(=O)O)c3cccc4c3OCC4)CC2)CC1 (stereo not given) | 2.04
42 | O=C(NCCCSC1CCCCC1)C1NCCc2[nH]cnc21 (stereo not given) | -1.27
43 | CC(=O)N1CCC(NCc2cccnc2N(C)Cc2ccccc2)CC1 | -6.72
44 | CNc1ncc(CN(C)c2ncnc3onc(C)c23)cn1 | 8.52
45 | CCOc1ccc(Cl)cc1C(C(=O)O)N1CCCC1 (stereo not given) | -2.88
46 | Cc1nccn1CCN(C)C(=O)C1CCCN(C2CCOCC2)C1 (stereo not given) | -4.07
47 | O=C(O)[C@@H]1CN(Cc2c[nH]c(CC3CCCC3)n2)C[C@H]1c1ccncc1 | -4.68
48 | C=C(C)COc1cccc(CNCc2nc3ccccc3c(=O)[nH]2)c1 | 0.0265
49 | O=C(c1cnccn1)N1C[C@@H]2CC[C@H](C1)N(S(=O)(=O)c1cccnc1)C2 | 7.54
50 | O=C([C@H](O)c1ccccc1)N1CCN(c2cccc(Cl)c2)C(=O)C1 | 13.8
51 | c1ccc(Cn2cccn2)c(CN2CCC3(CCCNC3)C2)c1 (stereo not given) | 0.428
52 | COc1ccc(OC2CCN(C(=O)CCc3n[nH]c(C)n3)CC2)cc1 | 22.6
53 | CCN1CCN(C[C@@H]2CN(Cc3cnc(C(C)C)nc3)C[C@@H]2CO)CC1 | 13.2
54 | CCOC(=O)c1coc(N2CCN(Cc3cccc(OC)c3)C(=O)C2)n1 | 4.55
55 | CN(C(=O)c1ccccc1NCC(=O)O)C(C1CC1)C1CC1 | -10.9
